Calls of active or inactive are those of the source. The calls are words filed in the database; no cut-off is given here.
Columns and labels:
L929 [1] = test: Inhibition of LPS-induced nitric oxide production in mouse L929 cells assessed as nitrite formation; format: functional, cell-based
RAW [2] = test: Inhibition of LPS-induced nitric oxide production in mouse RAW 264.7 cells assessed as nitrite formation; format: functional, cell-based
L929 [3] = test: Inhibition of LPS-induced TNFalpha production in mouse L929 cells after 4 hrs by ELISA; format: functional, cell-based; details: L929, 4 h
RAW [4] = test: Inhibition of LPS-induced TNFalpha production in mouse RAW 264.7 cells after 4 hrs by ELISA; format: functional, cell-based
L929 [5] = test: Effect on TNF-mediated cytotoxicity against mouse L929 cells at 1 ug/mL after 18 hrs by crystal-violet staining assay; format: functional
L929 [6] = test: Effect on TNF-mediated cytotoxicity against mouse L929 cells at 10 ug/mL after 18 hrs by crystal-violet staining assay; format: functional
L929 [7] = test: Effect on TNF-mediated cytotoxicity against mouse L929 cells at 100 ug/mL after 18 hrs by crystal-violet staining assay; format: functional
HT-29 [8] = test: Inhibition of LPS-stimulated prostaglandin E2 release in human HT29 cells after 6 hrs by ELISA; format: functional, cell-based
HT-29 [9] = test: Inhibition of LPS-stimulated […] release in human HT29 cells after 6 hrs by ELISA; format: functional, cell-based
Mus musculus [10] = test: Antiinflammatory activity in paraffin oil challenged ip dosed C3H-FeJ peritonitis mouse model after 7 days; format: functional; details: 168 h
Mus musculus [11] = test: Antiinflammatory activity in paraffin oil challenged C3H-FeJ peritonitis mouse model assessed as peritoneal levage macrophage count per 10^5/mL at 2 mg/kg, ip after 7 days; format: functional; details: route intraperitoneal
Mus musculus [12] = test: Antiinflammatory activity in paraffin oil challenged C3H-FeJ peritonitis mouse model assessed as peritoneal levage macrophage count per 10^5/mL at 4 mg/kg, ip after 7 days; format: functional; details: route intraperitoneal
Mus musculus [13] = test: Antiinflammatory activity against TNBS-induced colitis in BALB/c IBD mouse model at 25 mg/kg, ip; format: functional, organism-based; parameters: dose 25 mg/kg
Mus musculus [14] = species on record: Mus musculus; test: Antiinflammatory activity against LPS-galactosamine challenged C57BL/6J SIRS mouse model at 500 ug assessed as mortality within 24 hrs; format: functional, organism-based
Mus musculus [15] = test: Effect on TNF-mediated cytotoxicity against C3H-FeJ mouse L929 cells at 2 mg/kg, ip after 3 days; format: functional; details: route intraperitoneal
[16] = biological target: T1, Tyrosine-protein kinase JAK3 (Mus musculus) (UniProt Q62137); test: Reduction of LPS-induced JAK3 phosphorylation in mouse RAW 264.7 cells at 100 ug/mL by Western blot analysis; format: cell-based
T1 sequence (whole entry): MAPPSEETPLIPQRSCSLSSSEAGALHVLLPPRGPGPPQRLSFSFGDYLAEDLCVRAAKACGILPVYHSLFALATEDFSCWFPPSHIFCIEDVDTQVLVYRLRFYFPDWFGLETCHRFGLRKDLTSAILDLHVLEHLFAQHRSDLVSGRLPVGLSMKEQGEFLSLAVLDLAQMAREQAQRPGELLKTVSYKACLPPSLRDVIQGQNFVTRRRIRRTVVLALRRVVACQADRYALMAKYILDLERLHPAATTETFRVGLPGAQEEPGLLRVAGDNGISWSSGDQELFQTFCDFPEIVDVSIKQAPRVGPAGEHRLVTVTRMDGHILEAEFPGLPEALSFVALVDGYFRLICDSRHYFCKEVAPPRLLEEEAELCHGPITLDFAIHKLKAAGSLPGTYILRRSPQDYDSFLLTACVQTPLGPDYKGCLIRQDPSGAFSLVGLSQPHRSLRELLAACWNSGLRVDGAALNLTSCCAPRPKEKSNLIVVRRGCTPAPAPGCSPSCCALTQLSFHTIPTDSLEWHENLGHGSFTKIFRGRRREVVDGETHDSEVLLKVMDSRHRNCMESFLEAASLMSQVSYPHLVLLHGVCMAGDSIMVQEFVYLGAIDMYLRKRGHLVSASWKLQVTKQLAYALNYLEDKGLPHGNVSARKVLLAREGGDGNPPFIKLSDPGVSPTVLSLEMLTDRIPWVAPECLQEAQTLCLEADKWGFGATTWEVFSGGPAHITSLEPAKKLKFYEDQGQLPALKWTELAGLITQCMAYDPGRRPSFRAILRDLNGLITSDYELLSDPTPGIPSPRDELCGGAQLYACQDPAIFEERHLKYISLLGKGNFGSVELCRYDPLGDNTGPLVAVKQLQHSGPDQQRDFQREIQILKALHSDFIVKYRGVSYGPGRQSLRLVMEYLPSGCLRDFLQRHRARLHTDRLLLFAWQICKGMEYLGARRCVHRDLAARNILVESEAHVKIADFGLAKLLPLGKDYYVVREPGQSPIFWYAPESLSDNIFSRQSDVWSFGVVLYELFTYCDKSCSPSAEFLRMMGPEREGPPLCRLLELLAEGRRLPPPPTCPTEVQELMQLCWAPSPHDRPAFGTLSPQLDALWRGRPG

RAW [17] = test: Inhibition of LPS-induced iNOS mRNA level in mouse RAW 264.7 cells by Northern blot analysis; format: functional, cell-based
RAW [18] = test: Inhibition of LPS-induced TNFalpha mRNA level in mouse RAW 264.7 cells by Northern blot analysis; format: functional, cell-based
Mus musculus [19] = test: Effect on TNF-mediated cytotoxicity against C3H-FeJ mouse L929 cells at 2 mg/kg, ip after 7 days; format: functional; details: route intraperitoneal
Mus musculus [20] = test: Effect on TNF-mediated cytotoxicity against C3H-FeJ mouse […] cells at 4 mg/kg, ip after 7 days; format: functional; details: route intraperitoneal
Mus musculus [21] = test: Effect on LPS-induced nitric oxide production in C3H-FeJ peritonitis mouse peritoneal macrophages at 2 mg/kg, ip after 7 days; format: functional; details: route intraperitoneal
Mus musculus [22] = test: Effect on LPS-induced nitric oxide production in C3H-FeJ peritonitis mouse peritoneal macrophages at 4 mg/kg, ip after 7 days; format: functional; details: route intraperitoneal
Mus musculus [23] = test: Antiinflammatory activity in paraffin oil challenged C3H-FeJ peritonitis mouse model assessed as peritoneal levage macrophage count per 10^5/mL at 2 mg/kg, ip after 3 days; format: functional; details: route intraperitoneal
Mus musculus [24] = test: Antiinflammatory activity in paraffin oil challenged C3H-FeJ peritonitis mouse model assessed as peritoneal levage macrophage count per 10^5/mL at 4 mg/kg, ip after 3 days; format: functional; details: route intraperitoneal
Mus musculus [25] = test: Effect on TNF-mediated cytotoxicity against C3H-FeJ mouse […] cells at 4 mg/kg, ip after 3 days; format: functional; details: route intraperitoneal
Mus musculus [26] = test: Effect on LPS-induced nitric oxide production in C3H-FeJ peritonitis mouse peritoneal macrophages at 2 mg/kg, ip after 3 days; format: functional; details: route intraperitoneal
Mus musculus [27] = test: Effect on LPS-induced nitric oxide production in C3H-FeJ peritonitis mouse peritoneal macrophages at 4 mg/kg, ip after 3 days; format: functional; details: route intraperitoneal
Mus musculus [28] = test: Antiinflammatory activity against carrageenan-induced hind paw edema in CD1 foot-pad mouse model assessed as reduction in paw swelling at 30 mg/kg, ip after 6 hrs; format: functional, organism-based; parameters: dose 30 mg/kg
Mus musculus [29] = test: Antiinflammatory activity against carrageenan-induced hind paw edema in ICR foot-pad mouse model assessed as reduction in paw swelling at 30 mg/kg, ip after 6 hrs; format: functional, organism-based; parameters: dose 30 mg/kg

COc1cc2ncnc(Nc3ccc(O)cc3)c2cc1OC [WHI-P131]
IC50 (L929 [1]): 1.7 µM
IC50 (RAW [2]): 1.4 µM
IC50 (L929 [3]): 14.5 µM
IC50 (RAW [4]): 124 µM
Activity (L929 [5]): 45.9%
Activity (L929 [6]): 25.7%
Activity (L929 [7]): 0%
Activity (HT-29 [8]): Active
Activity (HT-29 [9]): Active
ED50 (Mus musculus [10]): 2.8 mg/kg
Activity (Mus musculus [11]): 4.3
Activity (Mus musculus [12]): 2.5
Activity (Mus musculus [13]): Active
Activity (Mus musculus [14]): Non-toxic
Activity (Mus musculus [15]): 31.8%
Activity [16]: Active
Activity (RAW [17]): Active
Activity (RAW [18]): Dose-dependent effect
Activity (Mus musculus [19]): 45.3%
Activity (Mus musculus [20]): 34.6%
Activity (Mus musculus [21]): 3 µM
Activity (Mus musculus [22]): 4 µM
Activity (Mus musculus [23]): 3.1
Activity (Mus musculus [24]): 2.3
Activity (Mus musculus [25]): 18.8%
Activity (Mus musculus [26]): 40 µM
Activity (Mus musculus [27]): 13 µM
Activity (Mus musculus [28]): Active
Activity (Mus musculus [29]): Active
